Results as given in patent publication US20150141381A1, “TETRACYCLINE COMPOUNDS HAVING TARGET THERAPEUTIC ACTIVITIES” (Paratek Pharmaceuticals, Inc., priority 2001, published 2015).
Read-outs that look alike come from different tables or passages of the source. One block for each compound: values may come before it.

Key:
[1] = tested on: S. aureus RN450; assay: In Vitro Anti-Bacterial Activity Assay (MIC), gram positive; format: cell-based; settings: Staphylococcus aureus, RN450, 18 h
[2] = tested on: E. coli mL308 225; assay: In Vitro Anti-Bacterial Activity Assay (MIC), gram negative; format: cell-based; settings: Escherichia coli, ML308225, 18 h, MIC class, Table 3 (Continued); read-out: Gram− activity
[3] = MIC class, Table 3 (Continued), read-out: Gram+ activity

Structure (SMILES): CN(C)[C@@H]1C(O)=C(C(N)=O)C(=O)[C@@]2(O)C(O)=C3C(=O)c4c(O)cccc4C(CSCc4ccccc4)[C@H]3[C@H](O)[C@@H]12 (stereo partly shown)
- MIC [1, 3]: < 4 µg/mL
- MIC [2]: < 4 µg/mL

Structure (SMILES): CN(C)[C@@H]1C(O)=C(C(N)=O)C(=O)[C@@]2(O)C(O)=C3C(=O)c4c(O)ccc(Br)c4C[C@H]3C[C@@H]12
- MIC [1, 3]: < 4 µg/mL
- MIC [2]: < 4 µg/mL

Structure (SMILES): CCN(CC)c1ccc(-c2c[nH]c(Nc3ccc4c(c3O)C(=O)C3=C(O)[C@]5(O)C(=O)C(C(N)=O)=C(O)[C@@H](N(C)C)[C@@H]5[C@@H](O)[C@@H]3[C@H]4C)n2)cc1
- MIC [1, 3]: < 4 µg/mL
- MIC [2]: > 4 µg/mL

Structure (SMILES): CN(C)[C@@H]1C(O)=C(C(N)=O)C(=O)[C@@]2(O)C(O)=C3C(=O)c4c(O)ccc(-c5cccc([N+](=O)[O-])c5)c4C[C@H]3C[C@@H]12
- MIC [1, 3]: < 4 µg/mL
- MIC [2]: < 4 µg/mL

Structure (SMILES): COC(=O)c1ccc(-c2ccc(O)c3c2C[C@H]2C[C@H]4[C@H](N(C)C)C(O)=C(C(N)=O)C(=O)[C@@]4(O)C(O)=C2C3=O)cc1
- MIC [1, 3]: < 4 µg/mL
- MIC [2]: < 4 µg/mL

Structure (SMILES): CN(C)c1ccc(-c2ccc(O)c3c2C[C@H]2C[C@H]4[C@H](N(C)C)C(O)=C(C(N)=O)C(=O)[C@@]4(O)C(O)=C2C3=O)cc1
- MIC [1, 3]: < 4 µg/mL
- MIC [2]: < 4 µg/mL

Structure (SMILES): CN(C)c1cc(-c2ccc(C(=O)O)cc2)c(O)c2c1C[C@H]1C[C@H]3[C@H](N(C)C)C(O)=C(C(N)=O)C(=O)[C@@]3(O)C(O)=C1C2=O
- MIC [1, 3]: < 4 µg/mL
- MIC [2]: < 4 µg/mL

Structure (SMILES): CN(C)c1cc(-c2ccc(F)cc2F)c(O)c2c1C[C@H]1C[C@H]3[C@H](N(C)C)C(O)=C(C(N)=O)C(=O)[C@@]3(O)C(O)=C1C2=O
- MIC [1, 3]: < 4 µg/mL
- MIC [2]: < 4 µg/mL

Structure (SMILES): CN(C)c1cc(-c2ccc(F)c(F)c2)c(O)c2c1C[C@H]1C[C@H]3[C@H](N(C)C)C(O)=C(C(N)=O)C(=O)[C@@]3(O)C(O)=C1C2=O
- MIC [1, 3]: < 4 µg/mL
- MIC [2]: < 4 µg/mL

Structure (SMILES): CN(C)c1cc(C#Cc2ccccc2)c(O)c2c1C[C@H]1C[C@H]3[C@H](N(C)C)C(O)=C(C(N)=O)C(=O)[C@@]3(O)C(O)=C1C2=O
- MIC [1, 3]: < 4 µg/mL
- MIC [2]: < 4 µg/mL

Structure (SMILES): CN(C)[C@@H]1C(O)=C(C(N)=O)C(=O)[C@@]2(O)C(O)=C3C(=O)c4c(O)ccc(C#Cc5ccccc5)c4C[C@H]3C[C@@H]12
- MIC [1, 3]: < 4 µg/mL
- MIC [2]: < 4 µg/mL

Structure (SMILES): CN(C)[C@@H]1C(O)=C(C(N)=O)C(=O)[C@@]2(O)C(O)=C3C(=O)c4c(O)ccc(C5C=CCC5)c4C[C@H]3C[C@@H]12 (stereo partly shown)
- MIC [1, 3]: < 4 µg/mL
- MIC [2]: < 4 µg/mL

Structure (SMILES): COc1ccc(C#Cc2cc(N(C)C)c3c(c2O)C(=O)C2=C(O)[C@]4(O)C(=O)C(C(N)=O)=C(O)[C@@H](N(C)C)[C@@H]4C[C@@H]2C3)cc1
- MIC [1, 3]: < 4 µg/mL
- MIC [2]: < 4 µg/mL

Structure (SMILES): CN(C)c1cc(C#Cc2ccc(F)cc2)c(O)c2c1C[C@H]1C[C@H]3[C@H](N(C)C)C(O)=C(C(N)=O)C(=O)[C@@]3(O)C(O)=C1C2=O
- MIC [1, 3]: < 4 µg/mL
- MIC [2]: < 4 µg/mL

Structure (SMILES): CC#Cc1cc(N(C)C)c2c(c1O)C(=O)C1=C(O)[C@]3(O)C(=O)C(C(N)=O)=C(O)[C@@H](N(C)C)[C@@H]3C[C@@H]1C2
- MIC [1, 3]: > 4 µg/mL
- MIC [2]: > 4 µg/mL

Structure (SMILES): CN(C)[C@@H]1C(O)=C(C(N)=O)C(=O)[C@@]2(O)C(O)=C3C(=O)c4c(O)ccc(C#CC5CCCCC5)c4C[C@H]3C[C@@H]12
- MIC [1, 3]: < 4 µg/mL
- MIC [2]: < 4 µg/mL

Structure (SMILES): CN(C)[C@@H]1C(O)=C(C(N)=O)C(=O)[C@@]2(O)C(O)=C3C(=O)c4c(O)ccc(/C=C/c5c(F)c(F)c(F)c(F)c5F)c4C[C@H]3C[C@@H]12
- MIC [1, 3]: < 4 µg/mL
- MIC [2]: > 4 µg/mL

Structure (SMILES): CN(C)c1cc(C#CC2=CCCCC2)c(O)c2c1C[C@H]1C[C@H]3[C@H](N(C)C)C(O)=C(C(N)=O)C(=O)[C@@]3(O)C(O)=C1C2=O
- MIC [1, 3]: < 4 µg/mL
- MIC [2]: < 4 µg/mL

Structure (SMILES): CN(C)[C@@H]1C(O)=C(C(N)=O)C(=O)[C@@]2(O)C(O)=C3C(=O)c4c(O)ccc(-c5ccc(C(F)(F)F)cc5)c4C[C@H]3C[C@@H]12
- MIC [1, 3]: < 4 µg/mL
- MIC [2]: < 4 µg/mL

Structure (SMILES): Cc1ccc(-c2ccc(O)c3c2C[C@H]2C[C@H]4[C@H](N(C)C)C(O)=C(C(N)=O)C(=O)[C@@]4(O)C(O)=C2C3=O)cc1
- MIC [1, 3]: < 4 µg/mL
- MIC [2]: < 4 µg/mL

Structure (SMILES): CN(C)[C@@H]1C(O)=C(C(N)=O)C(=O)[C@@]2(O)C(O)=C3C(=O)c4c(O)ccc(C=C5CCC5)c4C[C@H]3C[C@@H]12
- MIC [1, 3]: < 4 µg/mL
- MIC [2]: < 4 µg/mL

Structure (SMILES): CCNc1ccc(-c2ccc(O)c3c2C[C@H]2C[C@H]4[C@H](N(C)C)C(O)=C(C(N)=O)C(=O)[C@@]4(O)C(O)=C2C3=O)cc1
- MIC [1, 3]: < 4 µg/mL
- MIC [2]: < 4 µg/mL

- MIC ([1]; MIC class, Table 3, read-out: Antibiotic Activity Gram +): < 4 µg/mL
Structure (SMILES): CCCC(C)(C)NC(=O)C1=C(O)[C@@H](N(C)C)[C@@H]2[C@@H](O)[C@H]3C(=C(O)[C@]2(O)C1=O)C(=O)c1c(O)cccc1[C@@H]3C [P]

Structure (SMILES): CCOP(=O)(OCC)C(Nc1cc(N(C)C)c2c(c1O)C(=O)C1=C(O)[C@]3(O)C(=O)C(C(N)=O)=C(O)[C@@H](N(C)C)[C@@H]3C[C@@H]1C2)c1ccc(OC)cc1 (stereo partly shown) [Z]
- MIC ([1]; read-out: Antibiotic Activity Gram +): < 4 µg/mL
